Assay results from patent publication US20040115710A1, “Method for assaying compounds that decrease the activity of poly (ADP-ribose)-Polymerase (PARP)” (Aventis Pharmaceuticals Inc., priority 2002, published 2004).

Columns and labels:
[1] = target: T1, Poly(ADP-Ribose)-Polymerase enzyme (PARP) (Homo sapiens, UniProt P09874); test: Fluorescence polarization PARP inhibition assay (Texas Red-labeled NAD+ tracer, histone, DNA); type: biochemical; conditions: known inhibitor of PARP used as control compound; inhibition curve in FIG. 3
T1 construct: IC50
Description: (§1) The transfer of Texas Red-ADP ribose to protein substrates (histone and PARP itself) can be monitored through the rotational speed of the fluorescence tracer by the fluorescence polarization method. The assay measures the ability of the test compounds to inhibit the enzyme to transfer fluorescence labeled ADP to protein substrates.
(§2) A PARP baculovirus which encodes the amino acid sequence of FIG. 6 (SEQ ID NO: 1), was used to infect sf(9) cells. After PARP was expressed, it was partially purified by 40-70% ammonia sulfate cuts, and then re-suspended in TRIS buffer containing 25% (v/v) glycerol. […]
(§3) After incubation, this mixture and the control mixture were illuminated with plane polarized light having a wavelength of 590 nm, and the fluorescence polarization of the mixture and the control mixture were measured using a fluorescence filter set with an excitation wavelength of 590 nm, and an emission wavelength of 620 nm. The measurements were made with a fluorescence polarization plate reader in fluorescence polarization (FP) mode. These two measurements were then compared to determine whether the fluorescence polarization measurement of the mixture containing the compound or agent is less than that of the control. […]

[2] = target: Poly(ADP-Ribose)-Polymerase enzyme (PARP) (Homo sapiens, UniProt P09874, E70Q); test: as above; type: biochemical; conditions: standard (control) inhibitor of PARP, value given in materials table
Description: as §1, §2, §3

Sequence of Poly(ADP-Ribose)-Polymerase enzyme (PARP) (Homo sapiens, UniProt P09874, E70Q) (P09874 whole entry E70Q): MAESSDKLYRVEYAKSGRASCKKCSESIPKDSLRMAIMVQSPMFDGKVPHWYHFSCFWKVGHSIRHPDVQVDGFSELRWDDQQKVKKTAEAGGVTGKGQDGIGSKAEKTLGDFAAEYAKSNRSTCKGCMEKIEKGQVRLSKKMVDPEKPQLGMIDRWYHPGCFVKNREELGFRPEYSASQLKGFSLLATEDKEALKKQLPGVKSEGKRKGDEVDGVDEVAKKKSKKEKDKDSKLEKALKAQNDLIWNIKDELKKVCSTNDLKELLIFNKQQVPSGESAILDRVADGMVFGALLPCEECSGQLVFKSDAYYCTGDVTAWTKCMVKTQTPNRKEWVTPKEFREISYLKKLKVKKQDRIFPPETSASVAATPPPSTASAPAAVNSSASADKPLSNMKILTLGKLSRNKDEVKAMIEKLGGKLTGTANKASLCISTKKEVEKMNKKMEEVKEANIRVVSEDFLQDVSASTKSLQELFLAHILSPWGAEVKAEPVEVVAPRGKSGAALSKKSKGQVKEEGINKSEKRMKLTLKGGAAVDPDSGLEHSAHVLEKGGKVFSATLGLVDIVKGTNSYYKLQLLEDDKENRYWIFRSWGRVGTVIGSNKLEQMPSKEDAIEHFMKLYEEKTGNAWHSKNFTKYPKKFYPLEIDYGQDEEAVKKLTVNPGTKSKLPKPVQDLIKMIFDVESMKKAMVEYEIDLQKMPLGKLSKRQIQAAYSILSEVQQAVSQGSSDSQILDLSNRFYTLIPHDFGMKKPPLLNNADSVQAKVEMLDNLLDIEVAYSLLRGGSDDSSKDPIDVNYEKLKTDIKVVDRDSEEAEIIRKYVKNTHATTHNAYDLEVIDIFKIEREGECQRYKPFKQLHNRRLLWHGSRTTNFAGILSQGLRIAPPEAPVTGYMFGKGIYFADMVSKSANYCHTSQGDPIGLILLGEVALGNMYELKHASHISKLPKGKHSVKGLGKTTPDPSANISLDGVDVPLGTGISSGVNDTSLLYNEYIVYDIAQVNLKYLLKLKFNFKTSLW
T1 sequence (P09874 whole entry): as the sequence (P09874 whole entry E70Q) above, with Q70E counted along it

Row | IC50 [1] [nM] | IC50 [2] [nM] | SMILES
1 | 379 | – | Oc1cccc2c(O)nccc12 [1,5-isoquinoline-diol]
2 | – | 200 | O=c1[nH]c2ccccc2c2ccccc12 [6(5H)-phenanthridinone]
